Assay results published in article PMC3425516 (PLoS ONE, 2012).

How the values were obtained:
NCI-H460 = assay: NCI-60 cell lines screening; assay type: cell-based; conditions: Homo sapiens, NCI-H460, Non-Small Cell Lung Cancer panel
Procedure: (§1) The NCI-60 cancer cell lines screening was conducted by the NCI’s Developmental Therapeutics Program (DTP; http://www.dtp.nci.nih.gov/branches/btb/ivclsp.html).

HL-60 (TB) = assay: NCI-60 cell lines screening; assay type: cell-based; conditions: Leukemia panel
Procedure: as §1

[1] = Body weight and adverse effects in xenograft study; assay type: in vivo, nude mice; conditions: HCT116 xenograft mice, oral daily treatment
Procedure: (A) Tumors were measured regularly and growth delay was calculated for treatment groups relative to control tumors (TGD). (B) Kaplan-Meier survival analysis was based on the tumor growth endpoint. (C) Inhibition of tumor growth curves represented a mean±SEM and percentage change in mean tumor volume (percent TGI). (D) Body weights were measured daily during the first week and then 2 times per week. The body weight ratio was calculated relative to the baseline measurement.
(§2) Once a tumor was palpable with the size of approximately 55 mm^3, mice were randomized into vehicle control and treatment groups (8 mice per group). Control mice received the vehicle (0.5% carboxymethyl cellulose +0.1% Tween 80). Tumors in all 3 groups were allowed to reach an endpoint volume of 1,200 mm^3.

HCT116 xenograft tumors = assay: Western blot of HCT116 xenograft tumor tissues; assay type: in vivo, nude mice; conditions: 200 mg/kg oral daily for 7 days
Procedure: (§3) For total lysate, cells were lysed with the 120 µL ice-cold lysis buffer [10 mmol/L Tris-HCl (pH 7.4), 150 mmol/L NaCl, 1 mmol/L EGTA, 1 mmol/L phenylmethylsulfonyl fluoride, 10 µg/mL aprotinin, 10 µg/mL leupeptin, 1 mM sodium orthovandate, 1 mM NaF, and 1% Triton X-100]. Cell lysates were centrifuged at 13,000 rpm for 30 min. […] After 1 h incubation at room temperature in PBS/5% nonfat milk, the membrane was washed with PBS/0.1% and incubated with the indicated antibodies at 4°C overnight. After washings with PBS/0.1% Tween 20, the corresponding secondary antibodies were applied to the membranes for 1 h at room temperature. The membranes were then washed with PBS/0.1% Tween 20 and the detection of signal was done with an enhanced chemiluminescence detection kit (Amersham, Buckinghamshire, UK).
as §2

recombinant human HDAC1 = recombinant human HDAC1 (Homo sapiens, UniProt Q13547); assay: biochemical
Description: The HDACs in vitro activities of recombinant human HDAC 1, 2, 4, 6 and 8 (BPS Biosciences) were detected by fluorigenic release of 7-amino-4-methylcoumarin from substrate upon deacetylase enzymatic activity.

HCT116 cells = assay: Western blot caspase 3 and PARP; assay type: cell-based, human; conditions: 24 h
Procedure: as §3

Sequence of recombinant human HDAC1 (Q13547 whole entry): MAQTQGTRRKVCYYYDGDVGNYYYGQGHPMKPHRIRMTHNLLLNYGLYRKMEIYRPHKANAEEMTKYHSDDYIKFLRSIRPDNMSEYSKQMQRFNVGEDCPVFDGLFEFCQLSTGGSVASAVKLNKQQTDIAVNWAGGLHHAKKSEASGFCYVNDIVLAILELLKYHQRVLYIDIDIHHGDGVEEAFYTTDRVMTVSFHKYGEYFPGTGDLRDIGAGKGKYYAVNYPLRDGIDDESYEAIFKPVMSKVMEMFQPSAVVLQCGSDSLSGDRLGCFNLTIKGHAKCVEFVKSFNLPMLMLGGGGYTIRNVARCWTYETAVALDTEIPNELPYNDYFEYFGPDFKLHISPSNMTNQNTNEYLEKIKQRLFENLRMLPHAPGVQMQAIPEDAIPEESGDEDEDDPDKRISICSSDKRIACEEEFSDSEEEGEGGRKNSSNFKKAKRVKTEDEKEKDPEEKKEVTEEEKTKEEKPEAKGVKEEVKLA

Work on `O=C(C=Cc1ccc2c(c1)CCN2S(=O)(=O)c1ccccc1)NO` [MPT0E028, 3-(1-benzenesulfonyl-2,3-dihydro-1H-indol-5-yl)-N-hydroxy-acrylamide] yielded a GI50 (NCI-H460) of 144 nM, a CC50 (NCI-H460; read-out: LC50 (the source's name)) of 21600 nM and a GI50 (HL-60 (TB); Homo sapiens) of 439 nM. For the same compound, the CC50 (HL-60 (TB); Homo sapiens, read-out: LC50 (the source's name)) was greater than 100000 nM, the TGI (HL-60 (TB)) was greater than 100000 nM and the “body weight and other adverse effects” value [1] was “No significant difference in body weight or other adverse effects”. For the same compound, the “expression of caspase 3, PARP, acetyl-histone H3 and acetyl-tubulin in xenograft tumors” value (HCT116 xenograft tumors) was “caspase 3, PARP and acetyl-histone H3 were substantially induced”, the IC50 (recombinant human HDAC1) was 53 ± 12 nM and the “caspase 3 and PARP activation (western blot)” value (HCT116 cells) was “induced caspase 3 and PARP activation in a concentration-dependent manner”.
